Results reported in US5446058A, “(Fused) benz(thio)amides” (Ono Pharmaceutical Co., Ltd., priority 1984, dated 1995).

Target: 5α-reductase
Assay: Inhibitory activity on 5α-reductase in vitro
Type: biochemical
Conditions: [4-14C]testosterone 5 μM, NADPH 5×10^-3 M, pH 7.4, 37° C., 60 mins; read-out: IC50, inhibitory activity on 5α-reductase (Table VII)
Experimental: Inhibitory activity of the compounds of the present invention on 5α-reductase was measured by the following method.
Inhibitory activity of the compounds of the present invention on 5α-reductase (IC50) in vitro was measured by the following method.
Compounds tested were incubated with radioactive [4-^14 C]testosterone (5 μM) and NADPH (5×10^-3 M) in the medium containing 5α-reductase, 0.09M Hepes (pH 7.4) and 0.22M sucrose at 37° C. for 60 mins. The reaction was stopped by adding solution of chloroform-methanol (1:2). The reaction mixture was centrifuged and the supernatant was separated by thin layer chromatography on silica gel using chloroform-methanol-acetic acid (99.2:0.6:0.2) as a developing solvent. Radioactivity of formed 5α-dihydrotestosterone was measured by TLC scanner. The values of IC50 were determined by the inhibition percents of 5α-reductase activity measured by the above procedure (see Endocrinal, Japon., 18, 179 (1971).).

IC50 [nM] | SMILES
5000 | CCCCCc1ccc(C=CC(=O)Nc2ccccc2OCCCC(=O)O)cc1 [6(1)]
4000 | CCCCCc1ccc(C(C)=CC(=O)Nc2ccccc2SCCCC(=O)O)cc1 [4(206)]

Test system: not listed separately
Assay: Acute toxicity (LD50), intravenous, male mice
Conditions: mouse, in vivo, intravenous administration

SMILES | LD50 [mg/kg]
O=C(Nc1cccc2c(=O)cc(-c3nnn[nH]3)oc12)c1ccc(OCCCCc2ccccc2)cc1 [1(230)] | > 1000
C=CCCC/C=C/COc1ccc(C(=O)Nc2cccc3c(=O)cc(-c4nn[nH]n4)oc23)cc1 [1(212)] | > 1000
O=C(Nc1cccc2c1OC(c1nnn[nH]1)CO2)c1ccc(OCCCCc2ccccc2)cc1 (centres unmarked) [1(76)] | > 1000
C=CCCC/C=C/COc1ccc(C(=O)Nc2cc(C)cc3c(=O)cc(-c4nn[nH]n4)oc23)cc1 [1(247)] | > 1000

Test system: LTD4
Assay: Antagonistic activity on LTD4 in vitro (contraction of isolated ilem in a Magnus tube)
Conditions: antagonism of LTD4, guinea pig ilem, 5×10^-9 g/ml LTD4, 37° C.; read-out: IC50 (Table III, comparison of activity by alkylene chain change)
Experimental: Antagonistic activity of the compounds of the present invention on LTD4 were measured by the following method.
A segment of ilem (2.5 cm) was removed from guinea pig 300-400 g and suspended in a Magnus tube containing Tyrodes solution. The tube was maintained at 37° C. and aerated with 95% O2 -5% CO2. After stabilizing from 30 mins, 5×10^-9 g/ml of LTD4 was added to the Magnus tube. Contraction length at the time and contraction lengths when the compounds of the present invention were challenged at some concentrations were measured, and the IC50 value were calculated.

IC50 [nM] | SMILES
8300 | CCCCCc1ccc(CC(=O)Nc2cccc3c2OC(c2nn[nH]n2)CO3)cc1 (centres unmarked)
2600 | CCCCCc1ccc(C(=O)Nc2cccc3c2OC(c2nn[nH]n2)CO3)cc1 (centres unmarked) [drawing 40]

Further lines, the compound ahead of its results:

SMILES | IC50 [nM]
CCCCCCCCCCCCC/C=C/C(=O)Nc1cccc2c1OC(c1nn[nH]n1)CO2 (centres unmarked) | 20000
CCCCCc1ccc(CCC(=O)Nc2cccc3c2OC(c2nn[nH]n2)CO3)cc1 (centres unmarked) | 660
CCCc1ccc(/C=C/C=C/C(=O)Nc2cccc3c2OC(c2nn[nH]n2)CO3)cc1 (centres unmarked) | 74

Same assay, conditions: antagonism of LTD4, guinea pig ilem, 5×10^-9 g/ml LTD4, 37° C.; read-out: IC50 (Table IV, comparison of activity by skeleton structure change (1))

IC50 [nM] | SMILES
30 | CCCCCc1ccc(/C=C/C(=O)Nc2cccc3c(=O)cc(-c4nn[nH]n4)oc23)cc1
690 | CCCCCc1ccc(/C=C/C(=O)Nc2cccc3c2SC(c2nn[nH]n2)CS3)cc1 (centres unmarked)
370 | CCCCCc1ccc(/C=C/C(=O)Nc2cccc3c2OC(c2nn[nH]n2)CO3)cc1 (centres unmarked)

Same assay, conditions: antagonism of LTD4, guinea pig ilem, 5×10^-9 g/ml LTD4, 37° C.; read-out: IC50 (Table V, comparison of activity by skeleton structure change (2))

IC50 [nM] | SMILES
2600 | CCCCCc1ccc(C(=O)Nc2cccc3c2OC(c2nn[nH]n2)CO3)cc1 (centres unmarked) [drawing 49]
180 | CCCCCc1ccc(C(=O)Nc2cccc3c(=O)cc(-c4nn[nH]n4)oc23)cc1
1200 | CCCCCc1ccc(C(=O)Nc2cccc3c2OC(C(=O)O)CO3)cc1 (centres unmarked)

Same assay, conditions: antagonism of LTD4, guinea pig ilem, 5×10^-9 g/ml LTD4, 37° C.; read-out: IC50 (Table VI, comparison of activity by skeleton structure change (3))

IC50 [nM] | SMILES
33 | C=CCCCC=CCOc1ccc(C(=O)Nc2cccc3c2OC(c2nn[nH]n2)CCO3)cc1 (centres unmarked) [1 (518)]
2.6 | O=C(Nc1cccc2ccc(-c3nn[nH]n3)nc12)c1ccc(OCCCCc2ccccc2)cc1 [1 (516)]
76 | CCCCCCOc1ccc(C(=O)Nc2cccc3cc(-c4nn[nH]n4)oc23)cc1 [1 (501)]
1.3 | O=C(Nc1cccc2c1OC(c1nn[nH]n1)CC2)c1ccc(OCCCCc2ccccc2)cc1 (centres unmarked) [1 (521)]
205 | CCCCCCOc1ccc(C(=O)Nc2cccc3c2OC(c2nn[nH]n2)C3)cc1 (centres unmarked) [1 (505)]
4.6 | O=C(Nc1cccc2ccc(-c3nn[nH]n3)cc12)c1ccc(OCCCCc2ccccc2)cc1 [1 (514)]
